Measured values reported in ChEMBL document CHEMBL1201862, “PubChem BioAssay data set” (2004).
Calls of active or inactive are those of the source.

Key:
[1] = target: T1, Voltage-gated N-type calcium channel alpha-1B subunit/Amyloid beta A4 precursor protein-binding family A member 1 (Homo sapiens, UniProt Q00975+Q02410); format: protein assay
[2] = target: T1, Voltage-gated N-type calcium channel alpha-1B subunit/Amyloid beta A4 precursor protein-binding family A member 1; format: protein assay; remark: listed apart in the source
[3] = target: T2, Tyrosine-protein phosphatase non-receptor type 22 (Homo sapiens, UniProt Q9Y2R2); format: functional
T2 sequence (Q9Y2R2 whole entry): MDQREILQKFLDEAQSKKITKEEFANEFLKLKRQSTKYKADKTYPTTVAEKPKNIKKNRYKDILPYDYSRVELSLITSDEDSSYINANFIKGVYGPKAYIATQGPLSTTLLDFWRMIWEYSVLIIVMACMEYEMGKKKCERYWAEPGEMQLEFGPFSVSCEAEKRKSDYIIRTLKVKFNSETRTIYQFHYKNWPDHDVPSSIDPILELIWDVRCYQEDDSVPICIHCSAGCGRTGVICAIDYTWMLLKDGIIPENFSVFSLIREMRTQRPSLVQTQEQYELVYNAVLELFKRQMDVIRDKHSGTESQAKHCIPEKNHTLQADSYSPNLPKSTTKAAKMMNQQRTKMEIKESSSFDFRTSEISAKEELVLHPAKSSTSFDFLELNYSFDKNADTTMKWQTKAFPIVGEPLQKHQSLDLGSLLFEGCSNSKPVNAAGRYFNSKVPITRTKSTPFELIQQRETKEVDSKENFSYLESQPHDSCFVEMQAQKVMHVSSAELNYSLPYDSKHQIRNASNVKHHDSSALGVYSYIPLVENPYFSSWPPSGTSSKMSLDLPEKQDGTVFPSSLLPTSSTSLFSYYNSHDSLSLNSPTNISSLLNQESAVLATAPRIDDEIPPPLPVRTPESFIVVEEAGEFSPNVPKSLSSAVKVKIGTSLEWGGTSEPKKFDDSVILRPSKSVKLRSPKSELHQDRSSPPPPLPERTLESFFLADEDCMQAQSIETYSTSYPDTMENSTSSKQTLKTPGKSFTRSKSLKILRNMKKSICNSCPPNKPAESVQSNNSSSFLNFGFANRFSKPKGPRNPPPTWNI

[4] = target: T2, Tyrosine-protein phosphatase non-receptor type 22; format: functional; remark: listed apart in the source
[5] = target: T3, Tyrosine-protein phosphatase non-receptor type 7 (Homo sapiens, UniProt P35236); format: functional
T3 sequence (P35236 whole entry): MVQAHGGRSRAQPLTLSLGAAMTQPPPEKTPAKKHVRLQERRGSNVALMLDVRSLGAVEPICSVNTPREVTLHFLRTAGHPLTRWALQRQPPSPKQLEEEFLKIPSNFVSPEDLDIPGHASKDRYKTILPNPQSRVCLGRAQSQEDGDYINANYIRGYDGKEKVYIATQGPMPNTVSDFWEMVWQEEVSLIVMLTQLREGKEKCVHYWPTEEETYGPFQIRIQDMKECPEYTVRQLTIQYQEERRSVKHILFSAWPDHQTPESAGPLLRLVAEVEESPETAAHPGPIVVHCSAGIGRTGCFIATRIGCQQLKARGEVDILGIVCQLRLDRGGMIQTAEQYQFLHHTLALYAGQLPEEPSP

[6] = target: T4, Ubiquitin-conjugating enzyme E2 N (Homo sapiens, UniProt P61088); format: functional
T4 sequence (P61088 whole entry): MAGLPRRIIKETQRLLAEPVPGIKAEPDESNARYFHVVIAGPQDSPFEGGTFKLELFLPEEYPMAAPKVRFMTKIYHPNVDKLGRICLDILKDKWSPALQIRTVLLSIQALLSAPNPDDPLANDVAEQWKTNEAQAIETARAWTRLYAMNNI

Bcl-2-related protein A1 = target: T5, Bcl-2-related protein A1 (Mus musculus, UniProt Q07440); format: functional;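 also: confirmatory dose–response counterscreen on Bfl-1, used to check hits from a UBC13 polyubiquitin inhibitor campaign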
T5 sequence (Q07440 whole entry): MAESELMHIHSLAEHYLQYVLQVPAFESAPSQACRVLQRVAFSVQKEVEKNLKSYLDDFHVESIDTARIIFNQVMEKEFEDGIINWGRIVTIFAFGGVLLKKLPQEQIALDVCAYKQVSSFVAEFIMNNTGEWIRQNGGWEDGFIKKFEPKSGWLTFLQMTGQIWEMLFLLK

[7] = target: T4, Ubiquitin-conjugating enzyme E2 N; format: functional; remark: listed apart in the source
HT-1080 = test: HT1080 cell viability loss – fluorescence readout (AID 620); format: functional, cell-based; settings: Homo sapiens
Cytochrome P450 2D6 = Cytochrome P450 2D6 (Homo sapiens, UniProt P10635);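 also: CYP2D6 member of a cytochrome P450 panel assay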
Cytochrome P450 2D6, sequence (P10635 whole entry): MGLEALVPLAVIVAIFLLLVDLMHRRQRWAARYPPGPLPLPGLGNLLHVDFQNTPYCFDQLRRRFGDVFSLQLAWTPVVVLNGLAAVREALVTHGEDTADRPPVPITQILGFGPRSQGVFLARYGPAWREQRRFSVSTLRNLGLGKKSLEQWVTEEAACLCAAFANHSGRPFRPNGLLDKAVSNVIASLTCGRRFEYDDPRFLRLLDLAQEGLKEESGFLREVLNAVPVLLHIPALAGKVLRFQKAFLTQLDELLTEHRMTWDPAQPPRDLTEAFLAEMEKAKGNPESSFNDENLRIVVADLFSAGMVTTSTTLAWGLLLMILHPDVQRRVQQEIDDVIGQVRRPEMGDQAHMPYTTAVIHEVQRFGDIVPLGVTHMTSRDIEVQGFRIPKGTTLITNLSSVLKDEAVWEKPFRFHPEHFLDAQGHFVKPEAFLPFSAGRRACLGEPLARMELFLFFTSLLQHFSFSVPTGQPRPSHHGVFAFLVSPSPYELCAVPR

[8] = target: Luciferin 4-monooxygenase (Photinus pyralis, UniProt P08659); test: Counter Screen for Luciferase-based Assay Positives. [Related pubchem assays: 620, 618, 411 ]
Luciferin 4-monooxygenase, sequence (P08659 whole entry): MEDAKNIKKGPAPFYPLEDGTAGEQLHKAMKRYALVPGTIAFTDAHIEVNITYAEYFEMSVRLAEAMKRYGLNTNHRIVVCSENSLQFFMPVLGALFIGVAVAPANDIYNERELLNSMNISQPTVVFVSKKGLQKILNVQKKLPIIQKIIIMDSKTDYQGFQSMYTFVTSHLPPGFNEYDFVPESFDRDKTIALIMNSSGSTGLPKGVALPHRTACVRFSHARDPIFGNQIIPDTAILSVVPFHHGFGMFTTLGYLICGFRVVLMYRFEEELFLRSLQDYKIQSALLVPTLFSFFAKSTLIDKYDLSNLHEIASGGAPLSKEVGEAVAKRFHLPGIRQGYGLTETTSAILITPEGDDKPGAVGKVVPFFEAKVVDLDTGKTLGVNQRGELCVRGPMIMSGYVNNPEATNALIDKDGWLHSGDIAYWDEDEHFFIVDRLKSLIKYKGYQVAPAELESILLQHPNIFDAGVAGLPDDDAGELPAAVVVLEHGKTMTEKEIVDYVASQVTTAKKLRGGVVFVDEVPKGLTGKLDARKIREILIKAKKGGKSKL

Hexokinase HKDC1 = target: T6, Hexokinase HKDC1 (Homo sapiens, UniProt Q2TB90); test: activation of HKDC1 glucose phosphorylation – biochemical, W721R variant, dose response (AID 504730); format: functional
T6 sequence (Q2TB90 whole entry): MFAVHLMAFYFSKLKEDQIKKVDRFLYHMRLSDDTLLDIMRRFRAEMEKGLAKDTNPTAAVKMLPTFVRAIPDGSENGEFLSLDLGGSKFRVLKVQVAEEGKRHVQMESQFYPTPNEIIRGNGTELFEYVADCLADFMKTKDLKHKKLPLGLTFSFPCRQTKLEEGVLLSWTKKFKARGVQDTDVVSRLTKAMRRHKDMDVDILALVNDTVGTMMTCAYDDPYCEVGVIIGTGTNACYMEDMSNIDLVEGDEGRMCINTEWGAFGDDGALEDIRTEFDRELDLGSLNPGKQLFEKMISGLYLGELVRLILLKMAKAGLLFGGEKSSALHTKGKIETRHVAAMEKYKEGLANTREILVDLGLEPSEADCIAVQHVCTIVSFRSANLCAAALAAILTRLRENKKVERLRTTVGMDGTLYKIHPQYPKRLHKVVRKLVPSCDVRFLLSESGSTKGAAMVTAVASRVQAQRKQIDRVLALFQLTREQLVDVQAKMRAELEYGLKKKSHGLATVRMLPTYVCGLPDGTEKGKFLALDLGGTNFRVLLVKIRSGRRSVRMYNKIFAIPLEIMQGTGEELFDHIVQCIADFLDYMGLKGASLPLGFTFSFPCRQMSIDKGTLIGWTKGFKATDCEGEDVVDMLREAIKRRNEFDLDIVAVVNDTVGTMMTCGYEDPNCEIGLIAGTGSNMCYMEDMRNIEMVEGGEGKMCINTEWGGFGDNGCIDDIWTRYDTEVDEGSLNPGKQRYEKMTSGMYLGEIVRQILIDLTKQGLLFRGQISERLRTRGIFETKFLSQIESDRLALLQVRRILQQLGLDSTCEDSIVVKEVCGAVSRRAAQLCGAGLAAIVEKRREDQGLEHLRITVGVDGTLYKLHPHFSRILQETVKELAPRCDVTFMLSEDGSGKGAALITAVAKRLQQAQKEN

Hexokinase-1 = target: T7, Hexokinase-1 (Homo sapiens, UniProt P19367); test: HK1 enzyme activation by HKDC1 hits – biochemical, selectivity assay for HKDC1 activator project, dose response (AID 504762); format: functional
T7 sequence (P19367 whole entry): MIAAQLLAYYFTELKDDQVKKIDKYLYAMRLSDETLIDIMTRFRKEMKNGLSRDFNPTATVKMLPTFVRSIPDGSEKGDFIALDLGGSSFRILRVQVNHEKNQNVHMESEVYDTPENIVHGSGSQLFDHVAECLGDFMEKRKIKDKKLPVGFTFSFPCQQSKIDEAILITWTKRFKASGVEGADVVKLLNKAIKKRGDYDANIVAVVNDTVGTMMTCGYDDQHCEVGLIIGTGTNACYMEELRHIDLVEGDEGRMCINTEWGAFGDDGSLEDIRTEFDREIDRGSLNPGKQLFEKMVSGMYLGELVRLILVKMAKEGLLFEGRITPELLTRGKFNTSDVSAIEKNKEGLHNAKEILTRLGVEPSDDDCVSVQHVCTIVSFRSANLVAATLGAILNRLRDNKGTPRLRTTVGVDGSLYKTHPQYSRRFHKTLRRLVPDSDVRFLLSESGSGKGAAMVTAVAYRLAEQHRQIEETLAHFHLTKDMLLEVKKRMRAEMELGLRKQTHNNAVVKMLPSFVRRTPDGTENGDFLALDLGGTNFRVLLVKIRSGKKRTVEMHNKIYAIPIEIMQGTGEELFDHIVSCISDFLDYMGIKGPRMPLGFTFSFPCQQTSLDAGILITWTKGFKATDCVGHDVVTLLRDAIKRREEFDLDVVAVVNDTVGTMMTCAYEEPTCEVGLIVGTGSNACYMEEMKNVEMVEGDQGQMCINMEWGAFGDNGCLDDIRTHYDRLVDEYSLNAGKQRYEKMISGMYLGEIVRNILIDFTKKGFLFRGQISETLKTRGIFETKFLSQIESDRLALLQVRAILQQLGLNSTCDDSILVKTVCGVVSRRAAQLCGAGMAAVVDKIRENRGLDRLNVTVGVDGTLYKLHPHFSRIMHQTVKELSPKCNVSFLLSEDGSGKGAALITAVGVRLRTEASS

Troponin, cardiac muscle = Troponin, cardiac muscle (Homo sapiens, UniProt P19429+P45379+P63316); test: Fluorescence-based biochemical high throughput dose response assay for activators of the calcium sensitivity of cardiac Regulated Thin Filaments (RTF). [Related pubchem assays (depositor defined):AID493008, AID493018, AID504382, AID504383]; format: protein-complex assay
[9] = target: G-protein coupled receptor 55 (Homo sapiens, UniProt Q9Y2T6); test: inhibition of LPI-stimulated GPR55 beta-arrestin translocation – imaging, U2OS, beta-arrestin-GFP, LPI agonist, primary screen (AID 2013); format: functional;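 also: antagonist potency measured as reduced agonist-driven arrestin aggregation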
G-protein coupled receptor 55, sequence (Q9Y2T6 whole entry): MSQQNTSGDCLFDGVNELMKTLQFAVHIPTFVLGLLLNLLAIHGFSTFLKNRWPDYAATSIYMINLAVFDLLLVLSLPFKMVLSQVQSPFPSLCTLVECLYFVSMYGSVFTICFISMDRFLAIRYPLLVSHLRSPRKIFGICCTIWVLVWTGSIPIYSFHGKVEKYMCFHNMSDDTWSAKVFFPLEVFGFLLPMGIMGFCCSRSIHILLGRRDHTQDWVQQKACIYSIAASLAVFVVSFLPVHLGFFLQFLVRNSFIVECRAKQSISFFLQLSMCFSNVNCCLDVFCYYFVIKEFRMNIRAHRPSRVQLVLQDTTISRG

[10] = NIH3T3 cell viability loss – ATP luminescence, mouse fibroblasts, counter-screen, dose response (AID 2010); format: functional, cell-based;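 also: cells exposed to compound for about 90 hours before reading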
[11] = system: Streptococcus sp. 'group A'; test: Streptococcus pyogenes SK(-)GAS viability under kanamycin – luminescence, BacTiterGlo, confirmation, counter-screen for streptokinase expression inhibitor project, dose response (AID 1900); format: functional, organism-based
[12] = loss of viability in HepG2 cells – cell-based, CellTiter-Glo, cherry-picked, cytotoxicity control for Shn3 inhibitor project, dose response (AID 624134); format: functional
[13] = target: Heat shock protein HSP 90-alpha (Homo sapiens, UniProt P07900); format: functional, organism-based
[14] = non-specific 3'UTR reporter inhibition in Clone20-Shn3RL – cell-based, Renilla luciferase, cherry-picked, counter-screen for Shn3 inhibitor project, dose response (AID 624133); format: functional
[15] = reduction of Shn3 3'UTR-driven luciferase in osteoblasts – cell-based, Clone20 osteoblasts, firefly luciferase, cherry-picked, dose response (AID 624132); format: functional;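 also: firefly luciferase luminescence from reporter carrying the Shn3 3'UTR in osteoblasts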
[16] = Trypanosoma cruzi growth suppression in host cells – NIH3T3 host cells, beta-gal luminescence, confirmation (AID 2044); format: functional, cell-based;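 also: intracellular parasites grown in NIH/3T3 mouse fibroblasts as host cells; luminescent beta-galactosidase reporter signal from transgenic T. cruzi replicating inside host cells; inhibitors lower the luminescence signal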
Streptococcus = test: GAS UMAA2166 growth inhibition – luminescence, BacTiterGlo, counter-screen for streptokinase expression inhibitor project, dose response (AID 1915); format: functional, organism-based;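 also: potency for reduction of bacterial viability or growth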
[17] = MIN6 cell viability loss – mouse insulinoma, cytotoxicity control, dose response (AID 2122); format: functional;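 also: confirmatory high-throughput counterscreen run to flag cytotoxic compounds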
INS1 = test: INS-1E survival protection against cytokine death – cell-based, luminescence, retest, dose response (AID 449756); format: functional; settings: Rattus norvegicus;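 also: cell death triggered by IL-1 beta plus TNF-alpha plus IFN-gamma mixture; protective hits raise ATP signal compared with cytokine alone wells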
[18] = decrease of insulin promoter-GFP reporter – imaging, high-content screening, mouse beta cells (AID 1628); format: functional; settings: MIN6

T1 sequence (Q00975 whole entry): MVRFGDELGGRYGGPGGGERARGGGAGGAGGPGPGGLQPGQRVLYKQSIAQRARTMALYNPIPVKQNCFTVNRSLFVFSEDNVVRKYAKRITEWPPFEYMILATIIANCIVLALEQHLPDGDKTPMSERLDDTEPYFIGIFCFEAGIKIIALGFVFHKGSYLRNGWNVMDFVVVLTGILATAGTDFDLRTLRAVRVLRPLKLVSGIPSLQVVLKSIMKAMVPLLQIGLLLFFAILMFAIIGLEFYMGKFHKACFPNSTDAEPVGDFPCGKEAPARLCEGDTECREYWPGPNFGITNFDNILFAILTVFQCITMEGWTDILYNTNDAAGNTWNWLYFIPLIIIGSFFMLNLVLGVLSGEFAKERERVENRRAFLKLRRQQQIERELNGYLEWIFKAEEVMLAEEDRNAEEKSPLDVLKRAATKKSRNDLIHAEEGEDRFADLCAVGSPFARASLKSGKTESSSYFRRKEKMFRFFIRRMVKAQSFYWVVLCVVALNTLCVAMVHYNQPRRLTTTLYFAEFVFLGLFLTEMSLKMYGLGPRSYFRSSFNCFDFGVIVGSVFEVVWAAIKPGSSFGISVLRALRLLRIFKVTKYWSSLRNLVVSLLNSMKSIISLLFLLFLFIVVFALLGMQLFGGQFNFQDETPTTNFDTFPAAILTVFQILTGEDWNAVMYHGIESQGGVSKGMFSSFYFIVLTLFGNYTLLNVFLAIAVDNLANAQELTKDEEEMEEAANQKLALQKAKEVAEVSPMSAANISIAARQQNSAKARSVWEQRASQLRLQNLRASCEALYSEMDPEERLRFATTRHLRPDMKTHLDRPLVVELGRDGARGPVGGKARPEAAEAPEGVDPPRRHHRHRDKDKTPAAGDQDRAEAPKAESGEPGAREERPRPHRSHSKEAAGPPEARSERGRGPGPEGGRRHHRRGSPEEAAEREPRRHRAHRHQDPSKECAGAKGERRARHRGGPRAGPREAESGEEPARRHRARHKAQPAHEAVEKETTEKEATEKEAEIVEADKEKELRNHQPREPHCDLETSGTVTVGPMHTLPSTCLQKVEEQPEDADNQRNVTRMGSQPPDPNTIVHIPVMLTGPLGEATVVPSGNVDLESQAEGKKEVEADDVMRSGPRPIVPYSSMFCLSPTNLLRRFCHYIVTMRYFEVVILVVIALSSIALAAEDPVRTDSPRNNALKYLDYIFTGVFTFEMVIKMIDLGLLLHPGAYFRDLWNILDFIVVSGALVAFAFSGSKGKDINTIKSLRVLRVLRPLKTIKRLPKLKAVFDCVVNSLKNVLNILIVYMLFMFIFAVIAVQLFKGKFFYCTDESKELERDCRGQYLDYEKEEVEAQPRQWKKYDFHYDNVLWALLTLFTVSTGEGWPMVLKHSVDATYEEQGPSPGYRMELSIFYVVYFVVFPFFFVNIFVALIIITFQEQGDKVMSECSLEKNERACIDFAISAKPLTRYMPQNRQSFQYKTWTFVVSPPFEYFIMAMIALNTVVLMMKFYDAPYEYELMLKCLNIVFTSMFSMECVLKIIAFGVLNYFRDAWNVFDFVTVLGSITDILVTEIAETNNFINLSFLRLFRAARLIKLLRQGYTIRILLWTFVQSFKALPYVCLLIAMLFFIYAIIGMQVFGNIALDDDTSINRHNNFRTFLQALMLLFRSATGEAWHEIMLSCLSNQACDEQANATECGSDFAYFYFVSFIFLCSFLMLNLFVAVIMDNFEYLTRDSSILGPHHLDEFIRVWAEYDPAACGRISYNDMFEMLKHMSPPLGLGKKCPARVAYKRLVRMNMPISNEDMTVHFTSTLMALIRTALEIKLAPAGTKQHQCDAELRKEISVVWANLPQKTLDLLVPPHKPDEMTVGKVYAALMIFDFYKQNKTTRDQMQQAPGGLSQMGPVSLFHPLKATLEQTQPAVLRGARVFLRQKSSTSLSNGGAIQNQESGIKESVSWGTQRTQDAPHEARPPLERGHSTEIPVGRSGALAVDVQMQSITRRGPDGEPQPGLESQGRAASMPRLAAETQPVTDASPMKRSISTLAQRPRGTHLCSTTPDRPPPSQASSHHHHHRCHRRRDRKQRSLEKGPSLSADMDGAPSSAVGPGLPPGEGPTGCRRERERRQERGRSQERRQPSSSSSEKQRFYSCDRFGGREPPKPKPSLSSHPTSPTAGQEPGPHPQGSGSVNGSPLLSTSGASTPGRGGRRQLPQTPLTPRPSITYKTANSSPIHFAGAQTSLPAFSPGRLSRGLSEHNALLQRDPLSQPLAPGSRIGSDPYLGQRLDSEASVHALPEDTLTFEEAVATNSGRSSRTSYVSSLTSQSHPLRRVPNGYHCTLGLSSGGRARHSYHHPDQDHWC
T1 sequence (Q02410 whole entry): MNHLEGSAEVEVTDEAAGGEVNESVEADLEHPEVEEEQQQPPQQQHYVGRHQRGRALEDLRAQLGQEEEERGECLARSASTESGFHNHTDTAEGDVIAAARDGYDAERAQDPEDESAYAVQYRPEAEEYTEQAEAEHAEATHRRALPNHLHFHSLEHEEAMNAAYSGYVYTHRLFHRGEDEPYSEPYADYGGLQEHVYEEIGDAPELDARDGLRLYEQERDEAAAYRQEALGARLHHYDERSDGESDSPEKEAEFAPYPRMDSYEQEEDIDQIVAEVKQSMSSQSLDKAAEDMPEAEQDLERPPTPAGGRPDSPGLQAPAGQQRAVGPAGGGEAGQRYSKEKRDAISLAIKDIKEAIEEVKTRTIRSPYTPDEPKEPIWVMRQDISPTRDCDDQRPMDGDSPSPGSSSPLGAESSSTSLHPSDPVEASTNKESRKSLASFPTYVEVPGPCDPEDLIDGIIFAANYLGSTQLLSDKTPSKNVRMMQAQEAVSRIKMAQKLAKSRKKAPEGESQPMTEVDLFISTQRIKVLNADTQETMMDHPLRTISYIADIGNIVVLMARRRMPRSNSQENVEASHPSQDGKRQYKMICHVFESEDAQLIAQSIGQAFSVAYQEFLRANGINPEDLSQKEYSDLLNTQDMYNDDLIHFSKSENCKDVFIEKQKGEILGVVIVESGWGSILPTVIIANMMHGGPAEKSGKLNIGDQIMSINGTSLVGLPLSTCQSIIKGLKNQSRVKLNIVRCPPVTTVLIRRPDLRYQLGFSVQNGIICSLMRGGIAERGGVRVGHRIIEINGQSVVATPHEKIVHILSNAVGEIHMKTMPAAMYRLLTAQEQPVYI

In the case of O=C(NCCO)c1cc(-c2cc(C(=O)NCCO)c3ccccc3n2)nc2ccccc12, the IC50 [1] is reported as > 50 µM (inactive) and the IC50 [2] is reported as 6.83 µM (active).

In the case of COc1ccc(OCC(=O)N/N=C/c2ccc(OC)c(OC)c2C(=O)O)cc1, the IC50 [3] is reported as > 79.4 µM (inactive), the IC50 [4] is reported as > 79.4 µM (inactive) and the IC50 [5] is reported as > 79.4 µM (inactive).

In the case of Cc1onc(-c2ccccc2)c1C(=O)Nc1cccc2nsnc12, the IC50 [6] is reported as 15.6 µM (active), the IC50 (Bcl-2-related protein A1) is reported as > 20 µM (inactive) and the IC50 [7] is reported as > 20 µM (inactive).

In the case of CCNC1=NN=C(c2ccc(C)cc2)CS1, the EC50 (HT-1080) is reported as > 50 µM (not active), the AC50 (Cytochrome P450 2D6) is reported as 14.1 µM (inconclusive) and the EC50 [8] is reported as 1.03 µM (active). The EC50 (Hexokinase HKDC1) was 51.6 µM (inactive) and the EC50 (Hexokinase-1) was 63.1 µM (inactive).

For O=C(CCCCCn1c(=O)[nH]c2ccccc2c1=O)NCCc1c[nH]c2ccccc12, the IC50 [6] was 19.3 µM (active), the IC50 (Bcl-2-related protein A1) was > 20 µM (inactive) and the IC50 [7] was 18.1 µM (active).

With CC(=O)N(C)c1ccc(C(O)(C(F)(F)F)C(F)(F)F)cc1 the EC50 (Troponin, cardiac muscle) was > 71.5 µM (inactive).

With Cc1cc(O)ccc1C1(c2ccc(O)cc2C)OC(=O)c2ccccc21 the IC50 [9] was 3.46 µM (active).

For Cc1cc2ncc(Cl)nc2cc1C, the IC50 [3] was > 79.4 µM (inactive), the IC50 [4] was > 79.4 µM (inactive) and the IC50 [5] was > 79.4 µM (inactive).

In the case of COc1ccc(/C=C/C(=O)NC(=S)NNC(=O)c2cnccn2)cc1, the EC50 [10] is reported as 15.2 µM (active), the EC50 [11] is reported as 4.07 µM (active) and the AC50 [12] is reported as 42.4 µM (active). For the same compound, the EC50 (Hexokinase HKDC1) was 2.23 µM (active), the AC50 [13] was 1.95 µM (active) and the AC50 [14] was 2.05 µM (active). The EC50 (Hexokinase-1) was > 80 µM (inactive), the AC50 [15] was 15.4 µM (active) and the EC50 [16] was 0.955 µM (active). For the same compound, the EC50 (Streptococcus) was 6.88 µM (active).

In the case of c1ccc(Cn2c(-c3ccccc3)nc3nc4ccccc4nc32)cc1, the EC50 (Troponin, cardiac muscle) is reported as > 71.5 µM (inactive).

In the case of CC(C)(C)c1ccc(CN2C(=O)CN=C(c3ccccc3)c3ccccc32)cc1, the IC50 [9] is reported as 3.35 µM (active).

With Nc1ccc(Br)cc1-c1nc2ccccc2nc1O the IC50 [17] was < 0.25 µM (active), the AC50 (INS1) was 0.63 µM (active) and the IC50 [18] was < 0.25 µM (active).
